Reference: patent US20220401423A1, “METHODS FOR TREATING INFLAMMATORY BOWEL DISEASE” (Angion Biomedica Corp., priority 2019, published 2022)

Tests used:
[1] = tested on: Acetic acid-induced colitis; experiment: Acetic acid (AA) induced colitis mouse model; assay type: in vivo
Description: Acetic acid-induced colitis is a common experimental animal model for IBD. Animals treated with acetic acid develop many pathological and histopathological characteristics in common with human ulcerative colitis. Rectal administration of acetic acid damages the mucosal epithelium and induces ulcerative colitis. The severity of the mucosal lesions that develop in acetic acid-induced colitis depends on the acetic acid concentration and the length of exposure. For example, injection of 25% acetic acid (AA) into the gastric lumen causes larger ulcerative lesions than injection of 5% acetic acid. Different concentrations of acetic acid and different exposure times have been reported to induce IBD in a rat model. Transmural necrosis in all layers of the bowel wall, severe neutrophil infiltration of the intestinal tissue, goblet cell depletion, edema, and submucosal ulceration are common manifestations of this model. Bloody diarrhea, reduction of the intestinal mucus, decreased nucleic acid (DNA and RNA) and total protein content, and increased colon weight and vascular permeability have also been observed. […] Acetic acid-induced colitis is also associated with changes NF-κB, inhibitor of κB (IκB) and IκB kinase expression.
Male CD-1 mice were infused with 4% AA in saline in 150 μL volume through rectal enema under isoflurane anesthesia. A sham group (n=6) received an equivalent volume of saline.
The remaining AA-treated mice (n=9 for each group) were then randomized to vehicle and/or Compound 1 treatment at 50 mg/kg, PO, BID for 3 days.

[2] = tested on: collagen levels; experiment: Antifibrotic activity, collagen levels (FIG. 23); details: model not stated
[3] = tested on: TNBS-induced colitis; experiment: TNBS-induced colitis mouse model, 50 mg/kg (Example 5); assay type: in vivo
Protocol: Using the same TNBS mouse model for IBD as described in Example 3, an experiment was performed with a 50 mg/kg dose of Compound 1, as described below.
Male CD-1 mice were infused with TNBS (2 mg/mouse) in 45% ethanol and 5% PBS in 150 μL volume through rectal enema under isoflurane anesthesia. A sham group (n=6) received an equal volume of 45% ethanol and PBS mixture.
Remaining TNBS mice (n=12/group) were randomized to vehicle or Compound 1 at 50 mg/kg, PO, BID for 3 days.

[4] = tested on: DSS-induced chronic colitis/IBD; experiment: DSS-induced chronic colitis/IBD mouse model; assay type: in vivo; details: 50 mg/kg, PO, BID, started 72 hours after DSS, 4 weeks; for colon length: compared to DSS-vehicle cohort
Description: DSS is a sulfated polymer that alters tight junction proteins, leading to the disruption of the intestinal barrier, and is toxic to epithelial cells. Results obtained in DSS-induced animal IBD models have helped to understand the pathogenesis of IBD and to screen potential therapeutic agents. DSS-induced IBD is simple and reproducible and results in symptoms resembling those of ulcerative colitis. The development of acute, chronic, or relapsing symptoms of IBD is dose-dependent, and the molecular weight of the DSS is key not only in the induction of colitis but also in the location of induction. […] Various DSS dosage and duration are used to induce IBD in some animal models. Following DSS administration, animals usually develop colitis with weight loss and severe, bloody diarrhea. DSS colitis is characterized by mucosal ulceration, leukocyte infiltration, intestinal crypt distortion and epithelial hyperplasia.
Adult male CD-1 mice were fed 3% DSS in drinking water for 5 days with alternate cycles of normal drinking water for 5 days and continued a total of 3 DSS cycles in 4 weeks. This model has been established to induce chronic colitis/IBD. Vehicle (n=10/group) or Compound 1 (50 mg/kg, PO, BID) were administered 72 hours after DSS and continued treatment for 4 weeks, then all mice were sacrificed. A small group (n=6) with normal drinking water was included as a sham control. Gross morphological and histopathological end points were evaluated. Additionally, tissue from the middle colon (100 mg) from all groups was subjected to hydroxyproline assay for collagen estimation as a fibrotic end point.

[5] = tested on: TNBS-induced colitis; experiment: TNBS-induced IBD/acute colitis mouse model, dose response (Example 3); assay type: in vivo
Description: Intracolonic administration of TNBS (2,4,6-trinitrobenzenesulfonic acid)/ethanol induces a severe illness characterized by bloody diarrhea and a dramatic loss of body weight during the first week with increased colon damage score (Mateus, V., et al. Clin. Exp. Gastroenterol. 2018; 11:325-334). TNBS-induced colitis, characteristic of acute colitis and the early phase of IBD, is a commonly utilized animal model in rodents that shares significant properties with human Crohn's disease. Advantages of this model include reproducibility and technical simplicity (Filipescu, I. E., et al. PLoS One 2018 Aug. 23; 13(8):e0202929). The use of TNBS-induced colitis has been valuable in elucidating the mechanisms that mediate disease immune-pathogenesis. TNBS-induced colitis is a well-validated animal model to assess compounds with potential therapeutic effects such as anti-TNFα, corticosteroids, natural compounds and traditional medicine (Mateus 2018; Filipescu 2018; Wirtz, S. et al. Nat. Protoc. 2017 July; 12(7):1295-1309). Compound 1 was therefore tested in the well-established model of TNBS-induced IBD/Acute Colitis.
In this IBD model, 2,4,6-trinitrobenzenesulfonic acid (TNBS) was used to induce disease. The inflammatory bowel disease (IBD)/acute colitis model was conducted in male CD-1 mice, body weights 30-35 grams, from Charles River Laboratories (CRL). After receipt from the vendor, animals were acclimatized to the animal facility at least 5 days following the animal facility standard operating procedures. All animals were fed the normal chow diet, had access to water ad libitum and housed in a single room of the animal facility with a 12:12 hr light-dark cycle and independent ventilation, temperature and humidity control.
Compound 1 was dissolved in distilled water at 0.9 mg/mL, 2.7 mg/mL and 8.1 mg/mL, and 200 μL was administered via oral gavage into each mouse.
Male CD-1 mice were starved overnight. Then, mice (n=33) were infused with […] (2 mg/mouse) in 50% ethanol in a 100 μL volume via rectal enema under isoflurane anesthesia. A sham group (n=6) received an equal volume of 50% ethanol. […] Remaining Sham (n=4) and TNBS mice (n=7/group) were randomized to vehicle or Compound 1 treatment at 5 mg/kg, 15 mg/kg, and 45 mg/kg, PO, BID for 4 days.
After 4 days of Compound 1 or vehicle treatment, mice were sacrificed. Body weight (FIG. 5), colon length (FIG. 6 and FIG. 8), colon weight (FIG. 7), and gross morphological score/disease severity scores (FIG. 9; normal=0 and severe=4) were recorded. Blood/serum was collected. The mid and distal part of the colon was fixed in 10% neutral buffered formalin and the proximal part of the colon was snap frozen in liquid nitrogen and stored at minus 80° C. until use.
Histological scoring. After overnight fixation in formalin, tissues were dehydrated (graded alcohols) and cleared (xylene) before being embedded in paraffin wax. Sections of tissue were cut and stained with hematoxylin and eosin (H & E) and scored in a blinded manner (FIG. 10). Histological scoring was based on a semi-quantitative scoring system as published (Lab Invest. 1993 August; 69(2):238-49). The following were ranked: the extent of the destruction of normal mucosal architecture (0, normal; 1, 2, and 3, mild, moderate, and extensive damage, respectively), presence and degree of cellular infiltration (0, normal; 1, 2, and 3, mild, moderate, and transmural infiltration, respectively), extent of muscle thickening (0, normal; 1, 2, and 3, mild, moderate, and extensive thickening, respectively), crypt damage/goblet cell depletion (0, no loss, 1, 2, 3 for mild, moderate and extensive loss of goblet cells respectively (FIG. 11). The scores for each feature were summed with a maximum possible colon injury score of 12 (FIG. 12).
Alcian Blue/Fast red staining. Formalin fixed, paraffin embedded colon tissue sections were used for Alcian blue staining to evaluate crypt damage/goblet cell loss. […]

[6] = 50 mg/kg, PO, BID for 3 days, started 72 hours after AA, compared to vehicle cohort
[7] = 50 mg/kg, PO, BID for 3 days, started 72 hours after TNBS, compared to vehicle cohort
[8] = 15 mg/kg and 45 mg/kg, BID, PO, 4 days, started 3 days after TNBS
[9] = 15 mg/kg and 45 mg/kg, BID, PO, 4 days, compared to pre-treatment and vehicle treated animals

COC(=O)c1ccc2c(n1)NC(=O)/C2=C(\Nc1ccc(N(C)C(=O)CN2CCN(C)CC2)cc1)c1ccccc1 [Compound 1, (Z)-methyl 3-(((4-(N-methyl-2-(4-methylpiperazin-1-yl)acetamido)phenyl)amino)(phenyl)methylene)-2-oxo-2,3-dihydro-1H-pyrrolo[2,3-b]pyridine-6-carboxylate]
decrease in colon length [1, 6]: significantly mitigated the decrease | gross morphological colon damage [1, 6]: significantly mitigated | histopathological colon damage (mucosal wall thickness, crypt/villi architecture) [1, 6]: significantly mitigated | AA-induced colitis (colon length, colon gross damage score, histopathological damage score, Alcian blue, H&E staining) ([1]; FIG. 2A-2E): significantly decreased | collagen levels (antifibrotic activity) [2]: reduced | colon architecture (Alcian blue staining for goblet cells of crypt/villi) [3, 7]: preserved | colon damage score [3, 7]: decreased | colon histopathological score [3, 7]: decreased | colon length [3, 7]: restored | mortality [3, 7]: significantly decreased | TNBS-induced increase in serum cytokines (interleukin-1α, TNFα, PDGF) ([3]; 50 mg/kg, PO, BID for 3 days, serum): significantly blocked | IBD symptoms (colon length, colon gross damage score, Alcian blue staining of goblet cells, colon histopathological score) ([3]; FIG. 25A-25F): recover from IBD symptoms | survival ([3]; TNBS induced colitis mortality model, FIG. 3): increased | macroscopic colon damage score (appearance, inflammation, rectal bleeding) [4]: decreased | histopathological injury score (crypt damage, epithelial erosion, inflammatory cell infiltration) ([4]; H&E stained colon sections): decreased | colon length [4]: significantly increased | colon length ([4]; listed as test compound): significantly restored | colonic hydroxyproline (HYP) ([4]; middle colon tissue): decreased | MPO-staining of colon tissue ([5]; 5 mg/kg and higher, BID, PO, 4 days, versus TNBS+vehicle treated animals): significantly decreased | body weight [5, 8]: significantly restored | colon length [5, 8]: significantly restored | colon weight [5, 8]: significantly restored | TNBS-induced goblet cell loss (Alcian Blue staining) [5, 9]: significantly reduced | colon histology (H&E histological scoring) [5, 9]: markedly improved | Disease Severity Index ([5]; 15 mg/kg and 45 mg/kg, BID, PO, 4 days, score 0 (normal)-4 (severe)): marked improvement | F4/80-staining of colon tissue ([5]; 15 mg/kg and higher, BID, PO, 4 days, versus TNBS+vehicle treated animals): significantly decreased | IBD symptoms (body weight, colon length, colon weight, disease severity index) ([5]; FIG. 5-9): recover from IBD symptoms
